Data from US20240197634A1, “PHARMACEUTICAL COMPOSITION FOR PREVENTING OR TREATING VIRUS INFECTIONS, COMPRISING POLYMER NANODISCS” (priority 2021, published 2024).

System: influenza virus
Assay type: cell-based

## Heparin
  viral activity after 1/100 dilution (virucidal activity): recovery in viral activity
